Experimental data published in patent US12319640B2, “Cyclic diones as herbicidal compounds” (SYNGENTA CROP PROTECTION AG, priority 2019, dated 2025).

Key:
Experiment in all cases: Glasshouse herbicide test, pre- and post-emergence
Type in all cases: in vivo
Lolium perenne (LOLPE) = details: 250 g/h, evaluated after 13 days, five-point scale; for percentage damage caused to the plant, LOLPE POST: post-emergence; for percentage damage caused to the plant, LOLPE PRE: pre-emergence
Procedure: (§1) Seeds of a variety of test species are sown in standard soil in pots (Lolium perenne (LOLPE), Setaria faberi (SETFA), Alopecurus myosuroides (ALOMY), Echinochloa crus-galli (ECHCG), Avena fatua (AVEFA)). After cultivation for one day (pre-emergence) or after 8 days cultivation (post-emergence) under controlled conditions in a glasshouse (at 24/16° C., day/night; 14 hours light; 65% humidity), the plants are sprayed with an aqueous spray solution derived from the formulation of the technical active ingredient in acetone/water (50:50) solution containing 0.5% Tween 20 (polyoxyethelyene sorbitan monolaurate, CAS RN 9005-64-5). Compounds are applied at 250 g/h. The test plants are then grown in a glasshouse under controlled conditions in a glasshouse (at 24/16° C., day/night; 14 hours light; 65% humidity) and watered twice daily. After 13 days for pre and post-emergence, the test is evaluated for the percentage damage caused to the plant. The biological activities are shown in the following table on a five-point scale (5=80-100%; 4=60-79%; 3=40-59%; 2=20-39%; 1=0-19%).

Avena fatua (AVEFA) = details: 250 g/h, evaluated after 13 days, five-point scale; for percentage damage caused to the plant, AVEFA POST: post-emergence; for percentage damage caused to the plant, AVEFA PRE: pre-emergence
Procedure: as §1

Setaria faberi (SETFA) = details: 250 g/h, evaluated after 13 days, five-point scale; for percentage damage caused to the plant, SETFA POST: post-emergence; for percentage damage caused to the plant, SETFA PRE: pre-emergence
Procedure: as §1

[1] = tested on: Echinochloa crus-galli (ECHCG); details: 250 g/h, evaluated after 13 days, five-point scale; for percentage damage caused to the plant, ECHCG POST: post-emergence; for percentage damage caused to the plant, ECHCG PRE: pre-emergence
Procedure: as §1

[2] = tested on: Alopecurus myosuroides (ALOMY); details: 250 g/h, evaluated after 13 days, five-point scale; for percentage damage caused to the plant, ALOMY POST: post-emergence; for percentage damage caused to the plant, ALOMY PRE: pre-emergence
Procedure: as §1

CC#Cc1cc(C)c(C2C(=O)CC3(CC2=O)CC(C(=O)NC)C3)c(C)c1 (stereo not drawn) [Compound 1.017]
percentage damage caused to the plant, LOLPE POST (Lolium perenne (LOLPE)): 5 (5=80-100%) | percentage damage caused to the plant, LOLPE PRE (Lolium perenne (LOLPE)): 5 (5=80-100%) | percentage damage caused to the plant, AVEFA POST (Avena fatua (AVEFA)): 5 (5=80-100%) | percentage damage caused to the plant, AVEFA PRE (Avena fatua (AVEFA)): 5 (5=80-100%) | percentage damage caused to the plant, SETFA POST (Setaria faberi (SETFA)): 5 (5=80-100%) | percentage damage caused to the plant, SETFA PRE (Setaria faberi (SETFA)): 5 (5=80-100%) | percentage damage caused to the plant, ECHCG POST [1]: 5 (5=80-100%) | percentage damage caused to the plant, ECHCG PRE [1]: 5 (5=80-100%) | percentage damage caused to the plant, ALOMY POST [2]: 5 (5=80-100%) | percentage damage caused to the plant, ALOMY PRE [2]: 5 (5=80-100%)

CC#Cc1cc(C)c(C2C(=O)CC3(CCC(C(=O)NC)C3)CC2=O)c(C)c1 (stereo not drawn) [Compound 1.018]
percentage damage caused to the plant, LOLPE POST (Lolium perenne (LOLPE)): 5 (5=80-100%) | percentage damage caused to the plant, LOLPE PRE (Lolium perenne (LOLPE)): 5 (5=80-100%) | percentage damage caused to the plant, AVEFA POST (Avena fatua (AVEFA)): 5 (5=80-100%) | percentage damage caused to the plant, AVEFA PRE (Avena fatua (AVEFA)): 5 (5=80-100%) | percentage damage caused to the plant, SETFA POST (Setaria faberi (SETFA)): 5 (5=80-100%) | percentage damage caused to the plant, SETFA PRE (Setaria faberi (SETFA)): 5 (5=80-100%) | percentage damage caused to the plant, ECHCG POST [1]: 5 (5=80-100%) | percentage damage caused to the plant, ECHCG PRE [1]: 5 (5=80-100%) | percentage damage caused to the plant, ALOMY POST [2]: 5 (5=80-100%) | percentage damage caused to the plant, ALOMY PRE [2]: 5 (5=80-100%)

CNC(=O)C1CCC2(CC1)CC(=O)C(c1c(C)cc(-c3ccc(C#N)cn3)cc1C)C(=O)C2 (stereo not drawn) [Compound 1.020]
percentage damage caused to the plant, LOLPE POST (Lolium perenne (LOLPE)): 5 (5=80-100%) | percentage damage caused to the plant, LOLPE PRE (Lolium perenne (LOLPE)): 5 (5=80-100%) | percentage damage caused to the plant, AVEFA POST (Avena fatua (AVEFA)): 5 (5=80-100%) | percentage damage caused to the plant, AVEFA PRE (Avena fatua (AVEFA)): 5 (5=80-100%) | percentage damage caused to the plant, SETFA POST (Setaria faberi (SETFA)): 5 (5=80-100%) | percentage damage caused to the plant, SETFA PRE (Setaria faberi (SETFA)): 5 (5=80-100%) | percentage damage caused to the plant, ECHCG POST [1]: 5 (5=80-100%) | percentage damage caused to the plant, ECHCG PRE [1]: 5 (5=80-100%) | percentage damage caused to the plant, ALOMY POST [2]: 5 (5=80-100%) | percentage damage caused to the plant, ALOMY PRE [2]: 5 (5=80-100%)

Cc1cc(-c2ccc(C#N)cn2)cc(C)c1C1C(=O)CC2(CCC(C(=O)N(C)C)CC2)CC1=O (stereo not drawn) [Compound 1.021]
percentage damage caused to the plant, LOLPE POST (Lolium perenne (LOLPE)): 5 (5=80-100%) | percentage damage caused to the plant, LOLPE PRE (Lolium perenne (LOLPE)): 4 (4=60-79%) | percentage damage caused to the plant, AVEFA POST (Avena fatua (AVEFA)): 5 (5=80-100%) | percentage damage caused to the plant, AVEFA PRE (Avena fatua (AVEFA)): 2 (2=20-39%) | percentage damage caused to the plant, SETFA POST (Setaria faberi (SETFA)): 5 (5=80-100%) | percentage damage caused to the plant, SETFA PRE (Setaria faberi (SETFA)): 4 (4=60-79%) | percentage damage caused to the plant, ECHCG POST [1]: 5 (5=80-100%) | percentage damage caused to the plant, ECHCG PRE [1]: 5 (5=80-100%) | percentage damage caused to the plant, ALOMY POST [2]: 5 (5=80-100%) | percentage damage caused to the plant, ALOMY PRE [2]: 4 (4=60-79%)

CNC(=O)C1CCC2(CC1)CC(=O)C(c1c(C)cc(-c3ccc(Cl)cn3)cc1C)C(=O)C2 (stereo not drawn) [Compound 1.022]
percentage damage caused to the plant, LOLPE POST (Lolium perenne (LOLPE)): 5 (5=80-100%) | percentage damage caused to the plant, LOLPE PRE (Lolium perenne (LOLPE)): 5 (5=80-100%) | percentage damage caused to the plant, AVEFA POST (Avena fatua (AVEFA)): 5 (5=80-100%) | percentage damage caused to the plant, AVEFA PRE (Avena fatua (AVEFA)): 5 (5=80-100%) | percentage damage caused to the plant, SETFA POST (Setaria faberi (SETFA)): 5 (5=80-100%) | percentage damage caused to the plant, SETFA PRE (Setaria faberi (SETFA)): 5 (5=80-100%) | percentage damage caused to the plant, ECHCG POST [1]: 5 (5=80-100%) | percentage damage caused to the plant, ECHCG PRE [1]: 5 (5=80-100%) | percentage damage caused to the plant, ALOMY POST [2]: 5 (5=80-100%) | percentage damage caused to the plant, ALOMY PRE [2]: 5 (5=80-100%)

CNC(=O)C1CCC2(CC1)CC(=O)C(c1c(C)cc(-c3ncc(F)cc3F)cc1C)C(=O)C2 (stereo not drawn) [Compound 1.023]
percentage damage caused to the plant, LOLPE POST (Lolium perenne (LOLPE)): 5 (5=80-100%) | percentage damage caused to the plant, LOLPE PRE (Lolium perenne (LOLPE)): 5 (5=80-100%) | percentage damage caused to the plant, AVEFA POST (Avena fatua (AVEFA)): 5 (5=80-100%) | percentage damage caused to the plant, AVEFA PRE (Avena fatua (AVEFA)): 5 (5=80-100%) | percentage damage caused to the plant, SETFA POST (Setaria faberi (SETFA)): 5 (5=80-100%) | percentage damage caused to the plant, SETFA PRE (Setaria faberi (SETFA)): 5 (5=80-100%) | percentage damage caused to the plant, ECHCG POST [1]: 5 (5=80-100%) | percentage damage caused to the plant, ECHCG PRE [1]: 5 (5=80-100%) | percentage damage caused to the plant, ALOMY POST [2]: 5 (5=80-100%) | percentage damage caused to the plant, ALOMY PRE [2]: 5 (5=80-100%)
